Measurements taken from patent US11649227B2, “Allosteric chromenone inhibitors of phosphoinositide 3-kinase (PI3K) for the treatment of disease” (Petra Pharma Corporation, priority 2020, dated 2023).

Tests used:
[1] = molecular target: human full length PIK3CA Wild-type (p110α/p85α complex) (Homo sapiens (Human), UniProt P42336); assay: PI3K-Alpha kinase (PIK3CA) activity, wild-type, Transcreener ADP2 FI assay; settings: PI3K-α (PIK3CA) wild-type, biochemical
Protocol: (§1) PI3K-Alpha kinase (PIK3CA) activity, wild-type and H1047R mutant and determining IC50 values for inhibitors
(§2) Recombinant, catalytically active human full length PIK3KA Wild-type and H1047R mutant were purchased as 1:1 complex of N-terminal 6×his tagged p110<(catalytic) and untagged p85<(regulatory subunit) from EMD Millipore Sigma (cat. no. 14-602M and 14-792M, respectively). The enzyme stocks were diluted to 5× stocks in buffer (20 mM HEPES pH 7.4, 100 mM NaCl, 0.5 mM EGTA, 0.01% triton-x-100) just before use. PIP2diC8 (Avanti Polar Lipids Inc., cat. no. 850185) or phosphoinositol-4,5-bisphosphate with phosphoserine (PIP2:PS) membrane (Thermo Fisher Scientific, cat. no. PV5100) was used as lipid substrates. PIP2diC8 lyophilized powder and PIP2:PS (1:19) membrane stock (1 mM in PIP2) were separately dissolved in milliQ water to a concentration of 250 uM and stored in −20° C. 10 mM stocks of compounds were serially diluted (3×) in neat DMSO and stored in a dessicator at room temperature. 5× compound stocks in 25% DMSO were prepared fresh from neat DMSO stocks. Wild-type (WT) and H1047R mutant protein, along with buffer components (except ATP), were incubated with or without compound at 27° C. for 1h. After incubation, the reaction was initiated by the addition of 5 uL of 125 uM ATP. A typical assay mixture (25 uL) comprised 40 mM HEPES buffer, pH 7.4, 25 mM MgCl2, 0.01% v/v triton-X-100, 5% v/v DMSO, 20 mM NaCl, 1-5 nM wt or H1047R, 25 uM ATP, and 50 uM PTP2diC8 or PTP2 in membrane. The reaction was allowed to proceed until about […] (2.5 uM ADP) after which time, 10 uL of reaction mixture was quenched with 25 uL of transcreener reagent (Transcreener ADP2 FI assay kit, BellBrook labs, Cat. No. 3013). The contents were incubated at rt for 1h and fluorescence was measured using a plate reader (Paradigm, Molecular Devices). The same assay was also run at pH 6.0 or 6.4 using MOPS buffer (Fisher BioReagents, CAS 1132-61-2). A calibration curve was generated under identical buffer conditions with varying ADP amounts. Using that, the observed fluorescence was converted to uM ADP. A plot between [ADP] and log[I] yielded the dose-response curves that enabled the calculation of IC50s.

[2] = molecular target: human full length PIK3CA H1047R mutant (p110α/p85α complex) (Homo sapiens (Human), UniProt P42336, H1047R); assay: PI3K-Alpha kinase (PIK3CA) activity, H1047R mutant, Transcreener ADP2 FI assay; settings: PI3K-α (PIK3CA) H1047R mutant, biochemical
Protocol: as §1, §2

Chain of human full length PIK3CA Wild-type (p110α/p85α complex) (P42336 whole entry): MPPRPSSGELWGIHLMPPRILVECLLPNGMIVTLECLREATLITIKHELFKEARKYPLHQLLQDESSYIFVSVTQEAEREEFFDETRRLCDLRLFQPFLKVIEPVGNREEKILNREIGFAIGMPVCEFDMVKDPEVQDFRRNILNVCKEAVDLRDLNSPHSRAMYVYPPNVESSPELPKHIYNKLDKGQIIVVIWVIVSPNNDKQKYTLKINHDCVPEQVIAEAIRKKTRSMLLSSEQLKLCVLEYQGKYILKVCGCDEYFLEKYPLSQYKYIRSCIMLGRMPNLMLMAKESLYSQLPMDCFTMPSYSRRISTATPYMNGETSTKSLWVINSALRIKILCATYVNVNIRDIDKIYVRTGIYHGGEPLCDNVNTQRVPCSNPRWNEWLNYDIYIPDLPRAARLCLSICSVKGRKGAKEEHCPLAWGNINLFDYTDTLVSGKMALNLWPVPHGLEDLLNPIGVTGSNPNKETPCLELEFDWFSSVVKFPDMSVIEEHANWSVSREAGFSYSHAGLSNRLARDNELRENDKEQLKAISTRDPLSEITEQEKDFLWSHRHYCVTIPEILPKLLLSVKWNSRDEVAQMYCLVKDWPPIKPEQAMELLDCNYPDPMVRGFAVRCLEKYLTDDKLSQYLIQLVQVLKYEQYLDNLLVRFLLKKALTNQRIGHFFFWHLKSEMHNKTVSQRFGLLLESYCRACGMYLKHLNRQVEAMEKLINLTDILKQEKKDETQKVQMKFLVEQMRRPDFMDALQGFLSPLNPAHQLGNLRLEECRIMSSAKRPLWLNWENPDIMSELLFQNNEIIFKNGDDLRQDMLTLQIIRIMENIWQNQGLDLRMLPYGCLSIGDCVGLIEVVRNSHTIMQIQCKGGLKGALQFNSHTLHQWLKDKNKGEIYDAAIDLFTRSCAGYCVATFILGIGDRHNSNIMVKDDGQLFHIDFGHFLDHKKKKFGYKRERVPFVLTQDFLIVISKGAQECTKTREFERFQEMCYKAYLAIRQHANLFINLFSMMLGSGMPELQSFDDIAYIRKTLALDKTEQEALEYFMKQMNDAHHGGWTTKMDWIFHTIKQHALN
Chain of human full length PIK3CA Wild-type (p110α/p85α complex) (P27986 whole entry partner): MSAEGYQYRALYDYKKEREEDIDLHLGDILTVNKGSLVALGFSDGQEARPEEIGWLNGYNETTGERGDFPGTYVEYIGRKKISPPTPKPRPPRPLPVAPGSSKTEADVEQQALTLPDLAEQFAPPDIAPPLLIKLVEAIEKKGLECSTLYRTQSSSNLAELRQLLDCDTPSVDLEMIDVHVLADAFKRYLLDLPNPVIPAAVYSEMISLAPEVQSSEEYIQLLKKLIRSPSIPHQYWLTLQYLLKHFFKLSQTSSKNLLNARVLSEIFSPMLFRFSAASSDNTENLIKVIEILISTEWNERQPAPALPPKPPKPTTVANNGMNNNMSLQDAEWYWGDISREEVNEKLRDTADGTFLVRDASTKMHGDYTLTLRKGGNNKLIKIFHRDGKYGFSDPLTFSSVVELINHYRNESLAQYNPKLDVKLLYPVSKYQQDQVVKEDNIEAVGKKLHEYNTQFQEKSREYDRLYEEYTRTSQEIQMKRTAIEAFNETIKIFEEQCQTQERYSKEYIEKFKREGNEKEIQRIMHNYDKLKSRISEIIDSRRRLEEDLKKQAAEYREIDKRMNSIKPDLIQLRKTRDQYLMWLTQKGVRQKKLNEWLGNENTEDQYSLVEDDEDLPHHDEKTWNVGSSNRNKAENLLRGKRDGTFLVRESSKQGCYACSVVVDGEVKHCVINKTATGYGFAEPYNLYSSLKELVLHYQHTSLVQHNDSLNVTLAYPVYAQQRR
Chain of human full length PIK3CA H1047R mutant (p110α/p85α complex) (P42336 whole entry H1047R): as the sequence (P42336 whole entry) above, with H1047R counted along it
Chain of human full length PIK3CA H1047R mutant (p110α/p85α complex) (P27986 whole entry partner): as the sequence (P27986 whole entry partner) above

Question: What does the source list for `Cc1cc(C(C)Nc2ccc(F)cc2C(=O)O)c2oc(N3Cc4ccc(F)cc4C3)cc(=O)c2c1` (single isomer, unassigned) [Example 349, 5-Fluoro-2-[1-[2-(5-fluoroisoindolin-2-yl)-6-methyl-4-oxo-chromen-8-yl]ethylamino]benzoic acid]?
Answer: IC50 [1]: < 500 nM; IC50 [2]: < 500 nM

Question: What does the source list for `Cc1cc(C(C)Nc2ccccc2C(=O)O)c2oc(N3Cc4ccc(F)cc4C3)cc(=O)c2c1` (single isomer, unassigned) [Example 124, 2-[1-[2-(5-Fluoroisoindolin-2-yl)-6-methyl-4-oxo-chromen-8-yl]ethylamino]benzoic acid]?
Answer: IC50 [1]: > 10000 nM; IC50 [2]: 5000 to 10000 nM

Question: Which IC50 [1] does the source give for `CCC1(c2ccccc2)CN(c2cc(=O)c3cc(C)cc(C(C)Nc4ccccc4C(=O)O)c3o2)C1` (single isomer, unassigned) [Example 212, 2-[1-[2-(3-Ethyl-3-phenyl-azetidin-1-yl)-6-methyl-4-oxo-chromen-8-yl]ethylamino]benzoic acid 2,2,2-trifluoroacetic acid] here?
Answer: 500 to 1000 nM

Question: What about the IC50 [2] of the same compound?
Answer: < 500 nM

Question: With `Cc1cc(C(C)Nc2ccccc2C(=O)O)c2oc(N3Cc4ccc(F)cc4C3)c(C)c(=O)c2c1` (single isomer, unassigned) [Example 272, 2-[1-[2-(5-Fluoroisoindolin-2-yl)-3,6-dimethyl-4-oxo-chromen-8-yl]ethylamino]benzoic acid] as the compound, how does the IC50 [1] read?
Answer: 500 to 1000 nM

Question: And the IC50 [2]?
Answer: < 500 nM

Question: How did the IC50 [1] turn out when `Cc1cc(C(C)Nc2cccc(F)c2C(=O)O)c2oc(N3Cc4ccc(F)cc4C3)c(C)c(=O)c2c1` (single isomer, unassigned) [Example 244, 2-Fluoro-6-[1-[2-(5-fluoroisoindolin-2-yl)-3,6-dimethyl-4-oxo-chromen-8-yl]ethylamino]benzoic acid] was run?
Answer: 5000 to 10000 nM

Question: What about the IC50 [2] of the same compound?
Answer: > 10000 nM

Question: How did the IC50 [1] turn out when `Cc1cc(C(C)Nc2ccccc2C(=O)O)c2oc(N3CCC4(CC3)Cn3nc(C(=O)N(C)C)cc3CO4)cc(=O)c2c1` (stereo not shown) [Example 107, 2-[1-[2-[2-(Dimethylcarbamoyl)spiro[4,7-dihydropyrazolo[5,1-c][1,4]oxazine-6,4′-piperidine]-1′-yl]-6-methyl-4-oxo-chromen-8-yl]ethylamino]benzoic acid] was run?
Answer: 5000 to 10000 nM

Question: What about the IC50 [2] of the same compound?
Answer: 1000 to 5000 nM

Question: For `Cc1cc(C(C)Nc2ccccc2-c2noc(=O)[nH]2)c2oc(N3CCC(C)(C)CC3)cc(=O)c2c1` (stereo not shown) [Example 45, 3-[2-[1-[2-(4,4-Dimethyl-1-piperidyl)-6-methyl-4-oxo-chromen-8-yl]ethylamino]phenyl]-4H-1,2,4-oxadiazol-5-one], which IC50 [1] is on record?
Answer: 1000 to 5000 nM

Question: And the IC50 [2]?
Answer: 500 to 1000 nM

Question: Which IC50 [1] does the source give for `Cc1c(N2CCC3(CC2)CC3)oc2c(C(C)Nc3ccccc3C(=O)O)cc(F)cc2c1=O` (single isomer, unassigned) [Example 328, 2-[1-[2-(6-Azaspiro[2.5]octan-6-yl)-6-fluoro-3-methyl-4-oxo-chromen-8-yl]ethylamino]benzoic acid] here?
Answer: < 500 nM

Question: And the IC50 [2]?
Answer: < 500 nM

Question: With `Cc1c(N2CCC(F)(F)CC2)oc2c(C(C)Nc3ccccc3C(=O)O)cc(F)cc2c1=O` (single isomer, unassigned) [Example 326, 2-[1-[2-(4,4-Difluoro-1-piperidyl)-6-fluoro-3-methyl-4-oxo-chromen-8-yl]ethylamino]benzoic acid] as the compound, how does the IC50 [1] read?
Answer: < 500 nM

Question: And the IC50 [2]?
Answer: < 500 nM

Question: For `Cc1cc(C(C)Nc2cccc3c2C(=O)NC3)c2oc(N3CCC(C)(C)CC3)cc(=O)c2c1` (stereo not shown) [Example 29, 7-[1-[2-(4,4-Dimethyl-1-piperidyl)-6-methyl-4-oxo-chromen-8-yl]ethylamino]isoindolin-1-one], which IC50 [1] is on record?
Answer: 1000 to 5000 nM

Question: What about the IC50 [2] of the same compound?
Answer: 1000 to 5000 nM

Question: `Cc1cc(C(C)Nc2ccc(C3CC3)nc2C(=O)O)c2oc(N3CCC(C)(C)CC3)cc(=O)c2c1` (stereo not shown) [Example 50, 6-Cyclopropyl-3-[1-[2-(4,4-dimethyl-1-piperidyl)-6-methyl-4-oxo-chromen-8-yl]ethylamino]pyridine-2-carboxylic acid] was tested. Which IC50 [1] did it give?
Answer: 1000 to 5000 nM

Question: What about the IC50 [2] of the same compound?
Answer: 500 to 1000 nM
